Article PMC4891047, “A 20(S)-protopanoxadiol derivative overcomes multi-drug resistance by antagonizing ATP-binding cassette subfamily B member 1 transporter function” (Oncotarget, 2016)
Like-named read-outs stand apart in the source and are kept apart here.

Experiments:
[1] = biological target: T1, ABCB1 (Homo sapiens, UniProt P08183); test: biochemical
T1 construct: membrane vesicles (Pgp-Glo assay system)

[2] = biological target: T1, ABCB1; test: biochemical; remark: listed apart in the source

T1 sequence (P08183 whole entry): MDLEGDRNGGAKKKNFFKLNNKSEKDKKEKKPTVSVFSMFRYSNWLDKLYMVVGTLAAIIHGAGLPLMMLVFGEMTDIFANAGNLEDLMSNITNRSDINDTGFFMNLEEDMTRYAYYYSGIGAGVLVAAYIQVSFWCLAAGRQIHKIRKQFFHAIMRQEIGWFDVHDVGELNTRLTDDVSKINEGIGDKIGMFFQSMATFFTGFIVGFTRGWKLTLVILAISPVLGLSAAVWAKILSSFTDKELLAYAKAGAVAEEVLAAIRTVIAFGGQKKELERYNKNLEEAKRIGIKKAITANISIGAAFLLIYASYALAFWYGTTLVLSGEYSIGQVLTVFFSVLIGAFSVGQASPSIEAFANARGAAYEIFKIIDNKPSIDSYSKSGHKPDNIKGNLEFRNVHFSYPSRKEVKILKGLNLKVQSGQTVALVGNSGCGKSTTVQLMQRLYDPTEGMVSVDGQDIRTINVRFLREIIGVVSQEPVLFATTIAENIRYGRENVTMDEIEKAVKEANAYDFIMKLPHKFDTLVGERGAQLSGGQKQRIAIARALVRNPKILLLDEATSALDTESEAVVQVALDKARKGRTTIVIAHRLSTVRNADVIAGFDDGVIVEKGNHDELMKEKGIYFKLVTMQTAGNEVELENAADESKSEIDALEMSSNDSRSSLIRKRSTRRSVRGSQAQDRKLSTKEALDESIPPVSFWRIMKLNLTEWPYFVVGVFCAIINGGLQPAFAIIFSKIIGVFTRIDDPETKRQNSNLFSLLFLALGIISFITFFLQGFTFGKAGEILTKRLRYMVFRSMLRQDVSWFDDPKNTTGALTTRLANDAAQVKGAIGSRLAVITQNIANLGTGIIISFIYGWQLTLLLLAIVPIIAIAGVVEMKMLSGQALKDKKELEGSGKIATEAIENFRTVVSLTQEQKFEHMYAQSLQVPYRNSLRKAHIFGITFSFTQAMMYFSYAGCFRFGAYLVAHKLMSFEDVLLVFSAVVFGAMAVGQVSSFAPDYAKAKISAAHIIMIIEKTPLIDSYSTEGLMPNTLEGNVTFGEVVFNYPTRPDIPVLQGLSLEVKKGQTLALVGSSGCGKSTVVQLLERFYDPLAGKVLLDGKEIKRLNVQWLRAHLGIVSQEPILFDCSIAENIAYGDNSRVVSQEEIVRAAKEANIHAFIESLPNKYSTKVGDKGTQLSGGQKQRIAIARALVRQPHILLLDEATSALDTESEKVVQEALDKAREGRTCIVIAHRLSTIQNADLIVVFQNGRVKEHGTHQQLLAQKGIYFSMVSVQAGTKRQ

SMILES | EC50 [1] [nM] | EC50 [2] [nM]
COc1ccc(CNCCC[C@](C)(O)[C@H]2CC[C@]3(C)[C@@H]2[C@H](O)C[C@@H]2[C@@]4(C)CC[C@H](O)C(C)(C)[C@@H]4CC[C@]23C)cc1 [PPD11] | 2380 | 
CC(C)=CCC[C@](C)(O)[C@H]1CC[C@]2(C)[C@@H]1[C@H](O)C[C@@H]1[C@@]3(C)CC[C@H](O)C(C)(C)[C@@H]3CC[C@]12C [PPD, 20(S)-protopanoxadiol] | 3130 | 
CC1(C)[C@@H](O)CC[C@]2(C)[C@H]3C[C@@H](O)[C@@H]4[C@@H]([C@@](C)(O)CCCNCc5ccccc5)CC[C@@]4(C)[C@]3(C)CC[C@@H]12 [PPD12] |  | 1520
